Reference: PubChem BioAssay (NCI)
Where “and” joins values, the source holds several entries; their conditions need not be identical. Equal entries are not always repeated.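 Assay format: 96-well plates, 48-hour exposure. The concentration for 50% growth inhibition is given as GI50. TGI denotes the concentration required for complete inhibition of growth.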

Legend:
Test in all cases: NCI tumour cell line growth inhibition, 48 h
DLD-1 colon = test system: DLD-1 colon
DMS 114 small cell lung = test system: DMS 114 small cell lung
DMS 273 small cell lung = test system: DMS 273 small cell lung
KM20L2 colon = test system: KM20L2 colon
SNB-78 CNS = test system: SNB-78 CNS
XF 498 CNS = test system: XF 498 CNS
HOP-18 NSCLC = test system: HOP-18 NSCLC
RXF-631 renal = test system: RXF-631 renal
MDA-N = test system: MDA-N
P388/ADR leukemia = test system: P388/ADR leukemia
SN12K1 renal = test system: SN12K1 renal

Row | SMILES | TGI (DLD-1 colon) | TGI (DMS 114 small cell lung) | TGI (DMS 273 small cell lung) | TGI (KM20L2 colon) | TGI (SNB-78 CNS) | TGI (XF 498 CNS) | TGI (HOP-18 NSCLC) | TGI (RXF-631 renal) | TGI (MDA-N) | further results
1 | Cc1cc(C)c2c(c1)Nc1ccccc1P2c1ccccc1 (centres undefined) | 65.7 µM | > 100 µM | 50.7 µM | 74.7 µM | > 100 µM | 33.3 µM | – | – | – | –
2 | O=c1c(Sc2c(O)c3ccccc3c3ccccc3c2=O)c(O)c2ccccc2c2ccccc12 | > 100 µM | 92.3 µM | > 100 µM | > 100 µM | – | – | > 100 µM | > 100 µM | – | –
3 | C=C1CC2(C[C@@H](c3ccccc3)O[C@@H](c3ccccc3)C2)OC1=O (some centres undefined) | – | – | – | – | – | – | – | – | 5.76 µM | –
4 | CS(=O)(=O)OCCn1cnc2nc(NC(=O)c3ccccc3)[nH]c(=O)c21 | > 100 µM | > 100 µM | > 100 µM | > 100 µM | > 100 µM | – | > 100 µM | > 100 µM | – | –
5 | O=C1OC(CC(=O)c2ccc(Cl)cc2Cl)C(Cl)=C1Cl (centres undefined) | 54.5 µM | > 53.1 µM | > 100 µM | 42 µM | > 71.3 µM | 45.6 µM | > 100 µM | > 75.5 µM | – | –
6 | CCOC(=O)C1=C(NNC(=O)Cc2ccccc2)CSC1=Nc1ccccc1 | > 100 µM | – | > 100 µM | > 100 µM | > 100 µM | > 100 µM | > 100 µM | > 100 µM | – | –
7 | CCCCCCCCC(=O)N(C)C1C2CN3CCC(O2)C13 (centres undefined) | > 100 µM | > 100 µM | > 100 µM | > 100 µM | > 100 µM | – | > 100 µM | – | – | –
8 | COC1(O)C(=O)c2ccccc2OC1(OC)c1ccccc1 (centres undefined) | – | – | – | – | – | – | – | – | > 100 µM | –
9 | O=c1[nH]nc2ccccc2c1Cl | 22.8 µM | 18.9 µM | 35.5 µM | 29.5 µM | 41.1 µM | 28.1 µM | 29.1 µM | 28.4 µM | – | –
10 | C=C1C(=O)OC2C1CC[C@H](C)C13OC(=O)CC1[C@@]23C (some centres undefined) | > 100 µM | > 100 µM | > 100 µM | – | > 100 µM | – | – | – | – | –
11 | NC1=C(Br)C(=O)c2ncccc2C1=O | 1.98 µM | 0.313 µM | 1.44 µM | 3.54 µM | 2.48 µM | 2.16 µM | – | 3.73 µM | – | –
12 | Cc1ccc2c(c1C)-c1c(ccc(C)c1C)C(=O)C2=O | – | – | – | – | – | – | – | – | 0.348 µM | –
13 | Nc1c(Br)c(=O)[nH]c(=O)n1COCCO | > 100 µM | > 100 µM | > 100 µM | – | > 100 µM | > 100 µM | > 100 µM | > 100 µM | – | –
14 | c1cc(CCN2CCCCC2)ccn1 | – | – | – | – | – | – | – | – | > 100 µM | –
15 | CCc1ccccc1N1CCN(C(=O)c2cc(OC)c(OC)c(OC)c2)CC1 | > 100 µM | 0.692 µM | > 100 µM | 0.307 µM | > 100 µM | 17.9 µM | > 91.9 µM | – | – | TGI (P388/ADR leukemia): 4.22 µM; TGI (SN12K1 renal): 0.194 µM
16 | CCCCCCCCCCC(O)[C@H]1CCC(C2CC[C@H]([C@H](O)CCCCCCCCCCC(O)CC3=CC(C)OC3=O)O2)O1 (some centres undefined) | > 100 µM | 3.01 µM | 4.4 µM | 19.4 µM | 8.16 µM | – | – | 8.13 µM | – | –
17 | COc1ccc(C2=NN(C(=O)COc3ccc(Cl)cc3)C(O)(c3ccc(Cl)cc3)C2)cc1 (centres undefined) | > 100 µM | – | > 100 µM | > 100 µM | > 100 µM | > 100 µM | – | > 100 µM | – | –
18 | NNC(=O)CCC(=O)Nc1cc(Cl)c(Cl)cc1Cl | > 100 µM | > 100 µM | > 100 µM | > 100 µM | > 100 µM | > 100 µM | – | > 100 µM | – | –
19 | O=c1c2cc(Br)ccc2nc(-c2ccccc2Cl)n1NCC1(O)OCC(O)C(O)C1O (centres undefined) | – | > 100 µM | > 100 µM | > 100 µM | > 100 µM | – | – | – | – | –
20 | CC1CC(c2cccc3c2OCO3)=Nc2ccccc2S1 (centres undefined) | > 100 µM | > 100 µM | > 100 µM | > 100 µM | > 100 µM | > 100 µM | – | – | – | –

Row | SMILES | TGI (DLD-1 colon) | TGI (DMS 114 small cell lung) | TGI (DMS 273 small cell lung) | TGI (KM20L2 colon) | TGI (SNB-78 CNS) | TGI (XF 498 CNS) | TGI (HOP-18 NSCLC) | TGI (RXF-631 renal) | TGI (MDA-N) | further results
21 | CC1=C(C(=O)Nc2cccc(Cl)c2)C(c2ccc([N+](=O)[O-])cc2)C(C(=O)Nc2cccc(Cl)c2)=C(C)N1 | > 100 µM | > 100 µM | – | 54.4 µM | > 100 µM | – | 56.7 µM | 57.6 µM | – | –
22 | O=C1Nc2ccccc2C1Cc1ccc([N+](=O)[O-])cc1 (centres undefined) | – | – | – | – | – | – | – | – | > 100 µM | –
23 | O=C(/C=C/c1ccc(Cl)c(Cl)c1)c1ccc(F)cc1 | 27.8 µM | 30 µM | 26.9 µM | 35.2 µM | 41.1 µM | – | 50.2 µM | > 100 µM | – | –
24 | C/C([O-])=C1\Cc2ccccc2C1=O.C/C([O-])=C1\Cc2ccccc2C1=O.CC[O-].CC[O-].[Ti+4] | > 100 µM | 37.4 µM | 31.4 µM | > 100 µM | > 100 µM | – | 80 µM | 29.1 µM | 42.3 µM | GI50 (DLD-1 colon): 18.7 µM; GI50 (DMS 114 small cell lung): 18.7 µM; GI50 (DMS 273 small cell lung): 8.38 µM; GI50 (HOP-18 NSCLC): 32.5 µM; GI50 (KM20L2 colon): 29.2 µM; GI50 (MDA-N): 17.1 µM; GI50 (RXF-631 renal): 6.96 µM; GI50 (SNB-78 CNS): 24 µM
25 | COCC1N=C(c2cc(OC)c(OC)c(OC)c2-c2cc3c(cc2C2OCCCO2)OCO3)O[C@H]1c1ccccc1 (some centres undefined) | > 100 µM | > 100 µM | > 100 µM | > 100 µM | – | – | – | – | – | –
26 | CC(/C(=N/NC(=O)C(N)=O)c1c(Cl)ccc(Cl)c1O)C1(O)C(=O)Nc2ccccc21 (centres undefined) | > 100 µM | > 100 µM | > 100 µM | > 100 µM | > 100 µM | – | > 100 µM | > 100 µM | – | –
27 | C=C(C)C(=O)OC1CC2=CC(CC3(C)OC3C3OC(=O)C(=C)C13)OC2=O (centres undefined) | 5.17 µM | 30.3 µM | 28.3 µM | 30.5 µM | 33.3 µM | – | 34.1 µM | 35.8 µM | – | –
28 | O=c1c2cccc3cccc(c4oc5c6cccc7cccc(c(=O)c5c14)c76)c32 | 30.2 µM | 18.5 µM | 17.9 µM | 26.2 µM | 21.2 µM | – | 24.8 µM | 19.3 µM | – | –
29 | Fc1cccc2cc3ccc4cccc5ccc(c12)c3c45 | > 100 µM | > 100 µM | > 100 µM | > 100 µM | – | > 100 µM | 12.8 µM | > 100 µM | – | –
30 | CC(=O)Nc1ccc(/C=N\N2C(=O)c3ccccc3C2=O)cc1 | > 100 µM | > 100 µM | > 100 µM | > 100 µM | > 100 µM | > 100 µM | > 100 µM | – | – | –
31 | COC(C(=O)C(O)C(C)O)C1Cc2cc3cc(OC4CC(OC(C)=O)C(OC5CC(O)C(OC)C(C)O5)C(C)O4)cc(O)c3c(O)c2C(=O)C1OC1CC(OC2CC(OC3CC(C)(O)C(OC(=O)C(C)C)C(C)O3)C(O)C(C)O2)C(O)C(C)O1 (centres undefined) | 8.61 µM and > 27.3 µM | 0.084 µM and 0.017 µM and 0.0165 µM | – | – | – | – | – | – | 0.252 µM | GI50 (DLD-1 colon): 0.298 µM and 0.0325 µM; TGI (P388/ADR leukemia): 75 µM and > 100 µM; TGI (SN12K1 renal): 0.0126 µM; GI50 (XF 498 CNS): 0.00637 µM and 0.00134 µM
32 | O=C1/C(=C/c2ccccc2F)CNC/C1=C\c1ccccc1F | – | – | – | – | – | – | – | – | 1.71 µM | GI50 (MDA-N): 0.485 µM
33 | Nc1ncnc2c1ncn2CC(O)C(=O)O (centres undefined) | > 100 µM | > 100 µM | > 100 µM | > 100 µM | – | – | > 100 µM | – | > 100 µM | –
34 | Nc1ccn(CCO)c(=O)n1 | > 100 µM | > 100 µM | > 100 µM | > 100 µM | > 100 µM | – | > 100 µM | – | – | –
35 | [C-]#[O+].[C-]#[O+].[C-]#[O+].[C-]#[O+].[Ir].[Ir].[O-]c1ccc2ccccc2c1C=Nc1ccc(N=Cc2c([O-])ccc3ccccc23)cc1 | > 100 µM | > 100 µM | – | > 100 µM | > 100 µM | > 100 µM | > 100 µM | > 100 µM | – | GI50 (DLD-1 colon): > 100 µM; GI50 (DMS 114 small cell lung): > 100 µM; GI50 (HOP-18 NSCLC): > 100 µM; GI50 (KM20L2 colon): 59.2 µM; GI50 (RXF-631 renal): > 100 µM; GI50 (SNB-78 CNS): > 100 µM; GI50 (XF 498 CNS): > 100 µM
36 | O=C(O)CCSCCCN1C(=O)c2ccccc2C1=O | – | > 100 µM | – | > 100 µM | > 100 µM | – | – | – | – | –
37 | Cc1nn(-c2ccccc2)c2c1CC(=O)Nc1ccccc1-2 | – | – | – | – | – | – | – | – | 0.47 µM | –
38 | O=C1C=C[C@@]23C[C@@H](Nc4c(O)c5c6c(c42)=NCCC=6C=N5)SC3=C1 | 3.22 µM | – | 8.37 µM | 10.7 µM | 12.3 µM | 4.95 µM | 28.1 µM | – | 3.1 µM | GI50 (DLD-1 colon): 1.74 µM; GI50 (DMS 273 small cell lung): 2.42 µM; GI50 (HOP-18 NSCLC): 14.8 µM; GI50 (SNB-78 CNS): 3.24 µM; GI50 (XF 498 CNS): 2.34 µM
39 | CN(CC(=O)O)c1ccc(/C=C/c2ccnc3ccccc23)cc1 | – | – | – | – | – | – | – | – | 53.9 µM | –
